Data taken from patent publication US20120077735A1, “PROPHYLACTIC AGENT FOR RENAL FAILURE” (priority 2007, published 2012).

Assays:
male Wistar rats [1] = assay: Test 1: thickening of the small- and mid-sized renal artery wall in rats given L-NAME; assay type: in vivo, rat; settings: drinking water with L-NAME 1 g/L plus VPP 0.3 g/L or Enalapril 0.5 mg/L, ad libitum for eight weeks; compared with L-NAME alone; FIG. 1
Experimental: (§1) In order to evaluate the effect of the tripeptide Val Pro Pro (VPP) to suppress kidney glomerular disease and renal arteriosclerosis, a test on the frequency of occurrence of renal glomerular lesions and the degree of thickening of the small and middle renal artrey wall was carried out.
(§2) The test was carried out using three groups of male Wistar rats of seven weeks old (Japan SLC, Inc.), each of which group consist of 9 to 12 rats. […] The dose of Enalapril was determined such that its activity to inhibit ACE was equivalent to VPP's. […]
The thickening of the small-, and mid -sized artery wall existing in the renal cortex was also evaluated by a tissue pathological test in the same manner as the observation of the glomerular lesions. […] The thickness of the small- and mid-sized artery wall was scored from 0 to 3 as described below and a score for each individual rat was determined. The determined score for each individual rat was subjected to statistical analysis and a score for each group was determined. […]

male Wistar rats [2] = assay: Test 1: frequency of occurrence of renal glomerular lesions in rats given L-NAME; assay type: in vivo, rat; settings: drinking water with L-NAME 1 g/L plus VPP 0.3 g/L or Enalapril 0.5 mg/L, ad libitum for eight weeks; compared with L-NAME alone; FIG. 2
Experimental: as §1, §2
Under a microscopic observation, the glomerulus that atrophic lesions, deterioration of the glomerulus, glomerulosclerosis, alteration of Bowman's capsule or the like was observed was defined as the glomerulus with lesions, in accordance with the definition of the glomerular lesions described in a book by Enomoto et al. (edited by Makoto Enomoto, Yuzo Hayashi, and Hisako Tanaka, “Pathological tissues of experimental animals”, Softscience, pages 380-396). […] In one whole section, the frequency of occurrence of these glomerular lesions was scored from 0 to 3, and a score was determined for each individual rat. The thus determined score for each individual rat was subjected to statistical analysis and a score for each group was determined. […]

male Wistar rats [3] = assay: Test 2: rat renal pathologic state (glomerular lesions, renal artery wall at the hilum and small- and mid-sized artery wall thickening) in rats given L-NAME; assay type: in vivo; settings: drinking water with L-NAME 1 g/L plus IPP 0.3 g/L or Enalapril 0.5 mg/L, eight weeks; for With pathologic state / Without pathologic state: pathologic state = score not less than 1 in all three items
Experimental: The tripeptide Ile Pro Pro (IPP) was also tested for renal pathologic state, in order to evaluate its effect to suppress kidney glomerular disease and renal arteriosclerosis.
The test was carried out using three groups of male Wistar rats of seven weeks old (Japan SLC, Inc.), each of which group consist of 9 to 12 rats. After habituation breeding for a week, drinking water with L-NAME (manufactured by Sigma) being dissolved at a concentration of 1 g/L; drinking water with L-NAME and IPP being dissolved at a concentration of 1 g/L and 0.3 g/L respectively; drinking water with L-NAME and angiotensin converting enzyme (ACE) inhibitor, Enalapril at a concentration of 1 g/L and 0.5 mg/L respectively, were supplied ad libitum for eight weeks. The dose of Enalapril was determined such that its activity to inhibit ACE was equivalent to the activity of IPP to inhibit ACE.
The rats were sacrificed by exsanguination under diethylether anesthesia. The kidney was enucleated and then fixed with 10% neutral buffered formalin solution. Tissue samples were prepared from the fixed kidney by excising in parallel with the minor axis such that the tip of renal papilla was included. The specimen were embedded in paraffin and cut into thin sections with a thickness of 2.0 to 2.5 μm using a microtome. Two to five sections per rat were prepared. The thin sliced sections were subjected to hematoxylin eosin staining or periodic acid methenamine silver staining (PAM staining). In accordance with a method by Foglieni et al. (Chiara Foglieni, et al., “Protective effect of EDTA preadministration on renal ischemia” BMC Nephrology 2006, 7:5, [online], Mar. 15, 2006, BioMed Central Ltd, http://www.biomedcentral.com/bmcnephrol/), a histopathological examination was, with keeping the name of each sample concealed, carried out by a pathologist who was not involved in the test.
Under a microscopic observation, the glomerulus that atrophic lesions, deterioration of the glomerulus, glomerulosclerosis, alteration of Bowman's capsule or the like was observed was defined as the glomerulus with lesions, in accordance with the definition of the glomerular lesions described in a book by Enomoto et al. (edited by Makoto Enomoto, Yuzo Hayashi, and Hisako Tanaka, “Pathological tissues of experimental animals”, Softscience, pages 380-396). The atrophic lesion refers to conditions where the size ratio between the glomerulus and Bowman's capsule is altered due to glomerular atrophy. The deterioration of the glomerulus refers to conditions where the blood capillary cavity of the glomerulus is disappeared and glomerular functions are lost. The glomerulosclerosis refers to conditions where increased mesangial matrix was observed without accompanying hyperplasia of collagen fiber. The alteration of Bowman's capsule refers to conditions where hypertrophy of epithelial cells and uptake of lipid droplets and/or protein particles are observed. In one whole section, the frequency of occurrence of these glomerular lesions was scored from 0 to 3, and a score was determined for each individual rat.
Score 0: A case where one or two glomerular lesions owing to physiologic alterations were observed.
Score 1: A case where one or two focal regions in the glomerulus were observed, which regions were a limited and small range.
Score 2: A case where two to four focal regions in the glomerulus were observed, which regions were a middle sized range.
The focal regions herein indicate that a plural of lesions are, on the basis of pathological findings, observed in a certain area in one whole section.
The thickening of the renal artery wall at the hilum existing in the renal medulla and the thickening of the small and middle artery wall existing in the renal cortex were also evaluated by a tissue pathological test in the same manner as the observation of the glomerular lesions. […]

Row | Compound | degree of thickening of the small- and mid-sized artery wall (score 0 to 3) (male Wistar rats [1]) | frequency of occurrence of the glomerular lesions (score 0 to 3) (male Wistar rats [2]) | onset of the pathologic state of the glomerulus and the renal artery (result in words) (male Wistar rats [3]) | With pathologic state (male Wistar rats [3]) | Without pathologic state (male Wistar rats [3])
1 | CCOC(=O)[C@H](CCc1ccccc1)N[C@@H](C)C(=O)N1CCC[C@H]1C(=O)O [Enalapril] | did not show the suppressive effect | did not show the suppressive effect | did not exhibit such an effect | 2 rats | 7 rats
2 | Ile Pro Pro [IPP] |  |  | suppressed the onset of the pathologic state | 0 rats | 9 rats
3 | Val Pro Pro [VPP] | decrease in the degree of thickening | suppression of the frequency of occurrence of the glomerular lesions |  |  | 
